Source: patent publication US20230104936A1, “TRPML MODULATORS” (Casma Therapeutics, Inc., priority 2019, published 2023)

System: TFEB
Assay: TFEB nuclear translocation assay, HeLa wt cells
Assay type: cell-based
Details: 2 hrs compound treatment, Table 1 does not say HeLa wt or TRPML1 KO
How it was run: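 Read-out is the ratio of TFEB immunofluorescence in the nucleus to that in a ring just outside it, measured by automated imaging. HeLa wt cells received compounds for 2 hrs at 37° C before fixation and staining; AC50 values come from this ratio.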

| Structure (SMILES) | AC50 (Homo sapiens, HeLa, 2 h) | AC50 |
| --- | --- | --- |
| C[C@@H]1CN(CC2CCN(c3c(F)cccc3NS(=O)(=O)c3ccc4c(c3)OC(C)(C)C4)CC2)C[C@H](C)O1 [Compound A-780, N-[2-(4-{[(2R,6S)-2,6-dimethylmorpholin-4-yl]methyl}piperidin-1-yl)-3-fluorophenyl]-2,2-dimethyl-2,3-dihydro-1-benzofuran-6-sulfonamide] | ≤ 2000 nM |  |
| CN(C)S(=O)(=O)c1ccc(S(=O)(=O)Nc2ccccc2N2CCC(COC(F)F)CC2)cc1 [Compound A-543, N4-(2-{4-[(difluoromethoxy)methyl]piperidin-1-yl}phenyl)-N1,N1-dimethylbenzene-1,4-disulfonamide] | ≤ 2000 nM |  |
| CN(C)S(=O)(=O)c1ccc(S(=O)(=O)Nc2ccccc2N2CCCC3(COC3)C2)cc1 [Compound A-507, N1,N1-dimethyl-N4-(2-{2-oxa-6-azaspiro[3.5]nonan-6-yl}phenyl)benzene-1,4-disulfonamide] | 2010 to 8000 nM |  |
| CC(c1cccc(F)c1N1CCC(C)(C(F)F)CC1)S(=O)(=O)c1ccc(C(F)F)cc1 (single isomer, unassigned) [Compound A-964, 4-(difluoromethyl)-1-(2-(1-((4-(difluoromethyl)phenyl)sulfonyl)ethyl)-6-fluorophenyl)-4-methylpiperidine] |  | ≤ 2000 nM |
| CC(c1cccc(F)c1N1CCC(CN2C3CCC2COC3)CC1)S(=O)(=O)c1ccc(S(C)(=O)=O)cc1 (single isomer, unassigned) [Compound A-914, 8-((1-(2-fluoro-6-(1-((4-(methylsulfonyl)phenyl)sulfonyl)ethyl)phenyl)piperidin-4-yl)methyl)-3-oxa-8-azabicyclo[3.2.1]octane] |  | ≥ 10000 nM |
| COC1(C(=O)N2CCN(c3ccccc3NS(=O)(=O)c3ccc(S(=O)(=O)N(C)C)cc3)CC2)CCCCC1 [Compound A-445, N4-{2-[4-(1-methoxycyclohexanecarbonyl)piperazin-1-yl]phenyl}-N1,N1-dimethylbenzene-1,4-disulfonamide] | ≤ 2000 nM |  |
| C[C@@H]1CN(CC2CCN(c3c(NS(=O)(=O)c4ccc(S(=O)(=O)N(C)C)cc4)cccc3C3CC3)CC2)C[C@H](C)O1 [Compound A-863, N4-[3-cyclopropyl-2-(4-{[(2R,6S)-2,6-dimethylmorpholin-4-yl]methyl}piperidin-1-yl)phenyl]-N1,N1-dimethylbenzene-1,4-disulfonamide] | ≤ 2000 nM |  |
| CC1(C)CC2(CCN(c3ccccc3NS(=O)(=O)Cc3ccc4c(c3)COCC4)CC2)CO1 [Compound A-712, 1-(3,4-dihydro-1H-2-benzopyran-7-yl)-N-(2-{3,3-dimethyl-2-oxa-8-azaspiro[4.5]decan-8-yl}phenyl)methanesulfonamide] | 2010 to 8000 nM |  |
| O=S(=O)(Nc1ccccc1N1CCC(c2ccc(Cl)cc2F)CC1)c1cccc(F)c1 [Compound A-78, N-{2-[4-(4-chloro-2-fluorophenyl)piperidin-1-yl]phenyl}-3-fluorobenzene-1-sulfonamide] | ≥ 10000 nM |  |
| C[C@@H]1CN(CC2CCN(c3c(F)cccc3[C@H](C)S(=O)(=O)c3ccc(S(=N)(=O)N(C)C)cc3)CC2)C[C@H](C)O1 (single isomer, unassigned) [Compound A-1001] |  | ≤ 2000 nM |
| CN(C)S(=O)(=O)c1ccc(S(=O)(=O)Nc2ccccc2N2CCC(C(F)F)CC2)cc1 [Compound A-585, N4-{2-[4-(difluoromethyl)piperidin-1-yl]phenyl}-N1,N1-dimethylbenzene-1,4-disulfonamide] | ≤ 2000 nM |  |
| CN1CCN(c2ccccc2NS(=O)(=O)c2ccc(S(=O)(=O)N(C)C)cc2)CC1 [Compound A-54, N1,N1-dimethyl-N4-[2-(4-methylpiperazin-1-yl)phenyl]benzene-1,4-disulfonamide] | ≥ 10000 nM |  |
| CP(=O)(Nc1ccccc1N1CCC(c2ccc(Cl)cc2F)CC1)c1ccccc1 (stereo not drawn) [Compound A-66, 4-(4-chloro-2-fluorophenyl)-1-(2-{[methyl(phenyl)phosphoryl]amino}phenyl)piperidine] | ≥ 10000 nM |  |
| O=S(=O)(Nc1cccc(Cl)c1N1CCOCC1)c1ccccc1C1CC1 [Compound A-392, N-[3-chloro-2-(morpholin-4-yl)phenyl]-2-cyclopropylbenzene-1-sulfonamide] | 2010 to 8000 nM |  |
| Cc1cnc(N2CCC(CN3CCC(F)(F)CC3)CC2)c(NS(=O)(=O)c2ccc(S(=O)(=O)N(C)C)cc2)c1 [Compound A-952, N4-(2-{4-[(4,4-difluoropiperidin-1-yl)methyl]piperidin-1-yl}-5-methylpyridin-3-yl)-N1,N1-dimethylbenzene-1,4-disulfonamide] | ≤ 2000 nM |  |
| O=S(=O)(Nc1cc(Cl)ccc1N1CCC2(COC2)C1)c1ccc2c(c1)CCC2 [Compound A-395, N-(5-chloro-2-{2-oxa-6-azaspiro[3.4]octan-6-yl}phenyl)-2,3-dihydro-1H-indene-5-sulfonamide] | ≥ 10000 nM |  |
| CN(C)S(=O)(=O)c1ccc(S(=O)(=O)Nc2ccccc2N2CCC(CNC(C)(C)C)CC2)cc1 [Compound A-415, N4-(2-{4-[(tert-butylamino)methyl]piperidin-1-yl}phenyl)-N1,N1-dimethylbenzene-1,4-disulfonamide] | ≤ 2000 nM |  |

| Structure (SMILES) | AC50 (Homo sapiens, HeLa, 2 h) | AC50 |
| --- | --- | --- |
| C[C@@H]1CN(CC2CCN(c3c(F)cccc3NS(=O)(=O)c3ccc(S(=N)(=O)N(C)C)cc3)CC2)C[C@H](C)O1 (single isomer, unassigned) [Compound A-811, Rel-N-(2-(4-((2,6-dimethylmorpholino)methyl)piperidin-1-yl)-3-fluorophenyl)-4-(N,N-dimethylsulfamidimidoyl)benzenesulfonamide] |  | ≤ 2000 nM |
| CC1(C)CC2(CCN(c3ccccc3NS(=O)(=O)c3ccc(S(C)(=O)=O)c(F)c3)CC2)CO1 [Compound A-660, N-(2-{3,3-dimethyl-2-oxa-8-azaspiro[4.5]decan-8-yl}phenyl)-3-fluoro-4-methanesulfonylbenzene-1-sulfonamide] | 8010 to 9990 nM |  |
| CCC1(N2CCN(c3ccccc3NS(=O)(=O)c3ccc(S(=O)(=O)N(C)C)cc3)CC2)COC1 [Compound A-464, N4-{2-[4-(3-ethyloxetan-3-yl)piperazin-1-yl]phenyl}-N1,N1-dimethylbenzene-1,4-disulfonamide] | 2010 to 8000 nM |  |
| CC(N1CCN(c2ccccc2NS(=O)(=O)Cc2ccccc2)CC1)C(F)(F)F (stereo not drawn) [Compound A-542, 1-phenyl-N-{2-[4-(1,1,1-trifluoropropan-2-yl)piperazin-1-yl]phenyl}methanesulfonamide] | ≤ 2000 nM |  |
| CN(C)S(=O)(=O)c1ccc(S(=O)(=O)Nc2ccccc2N2CCN([C@@H]3C[C@@H]4CC[C@H]3C4)CC2)cc1 (racemic) [Compound A-421, rac-N4-(2-{4-[(1R,2S,4S)-bicyclo[2.2.1]heptan-2-yl]piperazin-1-yl}phenyl)-N1,N1-dimethylbenzene-1,4-disulfonamide] | ≤ 2000 nM |  |
| CC(c1cccc(C#N)c1N1CCC(CN2C[C@@H](C)O[C@@H](C)C2)CC1)S(=O)(=O)c1ccc(S(=O)(=O)N(C)C)cc1 (single isomer, unassigned) [Compound A-845, 4-((1-(3-cyano-2-(4-((2,6-dimethylmorpholino)methyl)piperidin-1-yl)phenyl)ethyl)sulfonyl)-N,N-dimethylbenzenesulfonamide] | 2010 to 8000 nM |  |
| CC(C)(C)C(=O)N1CCN(c2ccccc2NS(=O)(=O)c2ccc(S(C)(=O)=O)cc2)CC1 [Compound A-324, N-{2-[4-(2,2-dimethylpropanoyl)piperazin-1-yl]phenyl}-4-methanesulfonylbenzene-1-sulfonamide] | ≥ 10000 nM |  |
| C[C@@H]1CN(CC2CCN(c3c(NS(=O)(=O)c4ccc(S(=O)(=O)N(C)C)cc4)cccc3C(F)(F)F)CC2)C[C@H](C)O1 [Compound A-788, N4-[2-(4-{[(2R,6S)-2,6-dimethylmorpholin-4-yl]methyl}piperidin-1-yl)-3-(trifluoromethyl)phenyl]-N1,N1-dimethylbenzene-1,4-disulfonamide] | ≤ 2000 nM |  |
| CN(C)S(=O)(=O)c1ccc(S(=O)(=O)Cc2ccccc2N2CCC(c3ccc(Cl)cc3F)CC2)cc1 [Compound A-214, 4-((2-(4-(4-chloro-2-fluorophenyl)piperidin-1-yl)benzyl)sulfonyl)-N,N-dimethylbenzenesulfonamide] | ≤ 2000 nM |  |
| CN(C)S(=N)(=O)c1ccc(S(=O)(=O)Nc2ccccc2N2CCC(COC(F)(F)CF)CC2)cc1 (stereo not drawn) [Compound A-877, N,N-dimethyl-4-[(2-{4-[(1,1,2-trifluoroethoxy)methyl]piperidin-1-yl}phenyl)sulfamoyl]benzene-1-sulfonoimidamide] | ≤ 2000 nM |  |
| O=S(=O)(Nc1ccccc1N1CCC(c2ccc(Cl)cc2F)CC1)c1ccc(Cl)cc1 [Compound A-73, 4-chloro-N-{2-[4-(4-chloro-2-fluorophenyl)piperidin-1-yl]phenyl}benzene-1-sulfonamide] | ≤ 2000 nM |  |
| COCC1(C)CCN(c2ccccc2NS(=O)(=O)c2ccc3c(c2)C(C)(C)OC3)CC1 [Compound A-683, N-{2-[4-(methoxymethyl)-4-methylpiperidin-1-yl]phenyl}-3,3-dimethyl-1,3-dihydro-2-benzofuran-5-sulfonamide] | 2010 to 8000 nM |  |
| CN(C)S(=O)(=O)c1ccc(S(=O)(=O)Nc2cccc(F)c2N2CCC(CN3C[C@@H]4C[C@H]3CO4)CC2)cc1 [Compound A-785, N4-[3-fluoro-2-(4-{[(1S,4S)-2-oxa-5-azabicyclo[2.2.1]heptan-5-yl]methyl}piperidin-1-yl)phenyl]-N1,N1-dimethylbenzene-1,4-disulfonamide] | ≤ 2000 nM |  |
| COCC1(C)CCN(c2ccccc2NS(=O)(=O)c2ccc(F)c(C)c2)CC1 [Compound A-616, 4-fluoro-N-{2-[4-(methoxymethyl)-4-methylpiperidin-1-yl]phenyl}-3-methylbenzene-1-sulfonamide] | 2010 to 8000 nM |  |
| COCC1(C)CCN(c2ccccc2NS(=O)(=O)c2ccc(C3CC3)cc2)CC1 [Compound A-621, 4-cyclopropyl-N-{2-[4-(methoxymethyl)-4-methylpiperidin-1-yl]phenyl}benzene-1-sulfonamide] | ≤ 2000 nM |  |
| CCOC1(C)CCN(c2ccccc2NS(=O)(=O)c2ccc(S(=O)(=O)N(C)C)cc2)CC1 [Compound A-523, N4-[2-(4-ethoxy-4-methylpiperidin-1-yl)phenyl]-N1,N1-dimethylbenzene-1,4-disulfonamide] | ≤ 2000 nM |  |
